Drawing on patent US20130028865A1, “Combination of a Macrocyclic Inhibitor of HCV, A Non-Nucleoside and a Nucleoside” (MEDIVIR AB, priority 2010, published 2013), this text covers EC50 for 3 compounds.

SMILES strings stand for the structures. Like-named read-outs stand apart in the source and are kept apart here.

Assay [1] has as its system HCV RNA replication (HCV type 1b replicon in Huh-7 luc/neo cells). The assay is described as follows: HCV replicon assay (Huh-Luc, luciferase read-out). It counts as cell-based. Particulars: Hepatitis C virus, Huh-7, 72 h, HCV replicon test, three days incubation. The source says:
The EC50 ratio between the active ingredients of formula I, II and III in the combinations of the invention may vary. As used herein the term “EC50 ratio” refers to the ratio of the EC50 value of the compound of formula I to the EC50 value of the compound of formula II, and to the EC50 value of the compound of formula III, said EC50 values being obtained in the HCV replicon test. The latter in particular is the test method described hereinafter.
The in vitro antiviral activity against HCV of the compound of formula I or of formula II or of formula III can be tested in a cellular HCV replicon system based on Lohmann et al. (1999) Science 285:110-113, with the further modifications described by Krieger et al. (2001) Journal of Virology 75: 4614-4624 (incorporated herein by reference), which is further exemplified in the examples section. […]
The replicon cells were plated in 384 well plates in the presence of the test and control compounds which were added in various concentrations. Following an incubation of three days, HCV replication was measured by assaying luciferase activity (using standard luciferase assay substrates and reagents, and a Perkin Elmer ViewLux™ ultraHTS microplate imager). […] The inhibitory activity of the compound was monitored on the Huh-Luc cells, enabling a dose-response curve for each test compound. […]
Background: A replicon is a self-replicating genome or part of one, used to study replication in cells.

For assay [2] the test system is unchanged. Particulars: HCV replicon test; reported in WO2010/003658; cited from earlier work.

A word on the EC50: it is the concentration that produces a half-maximal response. Take `COc1ccc2c(O[C@@H]3C[C@H]4C(=O)N[C@]5(C(=O)NS(=O)(=O)C6CC6)C[C@H]5C=CCCCCN(C)C(=O)[C@@H]4C3)cc(-c3nc(C(C)C)cs3)nc2c1C` (stereo in doubt) [compound I, (1R,4R,6S,15R,17R)-cis-N-[17-[2-(4-isopropylthiazole-2-yl)-7-methoxy-8-methyl-quinolin-4-yloxy]-13-methyl-2,14-dioxo-3,13-diazatricyclo[13.3.0.0^4,6]octadec-7-ene-4-carbonyl](cyclopropyl)sulfonamide]: the EC50 in assay [1] was 8 nM.

As for `C[C@@H]1[C@H](n2ccc(N)nc2=O)O[C@@](CO)(N=[N+]=[N-])[C@H]1O` [compound II, 4-amino-1-((2R,3S,4S,5R)-5-azido-4-hydroxy-5-hydroxymethyl-3-methyl-tetrahydrofuran-2-yl)-1H-pyrimidin-2-one], the concentration giving a half-maximal response (EC50) in assay [1] was 5000 nM.

For the compound `COc1ccc2c(c1)C=C1Cn3c-2c(C2CCCCC2)c2ccc(cc23)C(=O)NS(=O)(=O)N(C)CCOCCN(C)C1=O` [compound III], in assay [2], the EC50 is 70 nM.
